Common to all, as to test: MIC, standard microdilution
A general note: Dilution methods test growth across graded concentrations, often in twofold steps.

Assay [1] deals with S. aureus 745. In kind it is cell-based, Staphylococcus aureus. The conditions noted are these: for MIC: Staphylococcus aureus, read-out: minimum inhibitory concentration (MIC). An excerpt:
(§1) The antibacterial activities of the compounds have been determined by standard microdilution technique (National Committee for Clinical Laboratory Standards. 1997. Methods for dilution antimicrobial susceptibility tests for bacteria that grow aerobically, 4th edition. Approved standard M7-A4. National Committee for Clinical Laboratory Standards, Wayne, Pa.).

Assay [2] deals with S. aureus 1086. The format is cell-based, Staphylococcus aureus. The conditions noted are these: for MIC: Staphylococcus aureus, read-out: minimum inhibitory concentration (MIC).
Source text: as §1

Assay [3] deals with S. aureus ATCC29213. The format is cell-based, Staphylococcus aureus. The following applies: for MIC: Staphylococcus aureus, read-out: minimum inhibitory concentration (MIC).
Source text: as §1

The subject of assay [4] is St. pneumoniae SL199T. In kind it is cell-based, Streptococcus pneumoniae. The following applies: for MIC: Streptococcus pneumoniae, read-out: minimum inhibitory concentration (MIC).
Source text: as §1

Assay [5] deals with St. pneumoniae 1/4. In kind it is cell-based, Streptococcus pneumoniae. The conditions noted are these: for MIC: Streptococcus pneumoniae, read-out: minimum inhibitory concentration (MIC).
Source text: as §1

Assay [6] deals with St. pneumoniae 1/1. The format is cell-based, Streptococcus pneumoniae. The following applies: for MIC: Streptococcus pneumoniae, read-out: minimum inhibitory concentration (MIC).
Source text: as §1

Assay [7] relates to St. pneumoniae 12288. In kind it is cell-based, Streptococcus pneumoniae. The conditions noted are these: for MIC: Streptococcus pneumoniae, read-out: minimum inhibitory concentration (MIC).
Source text: as §1

The test system of assay [8] is P. aeruginosa ATCC27853 (+Ery. 32 μg/ml). In kind it is cell-based.
Source text: as §1

Assay [9] relates to E. coli ATCC25922. The format is cell-based. The conditions noted are these: for MIC: Escherichia coli, read-out: minimum inhibitory concentration (MIC).
Source text: as §1

Molecules are shown by their SMILES. Values after ≈ are worked out from the molar mass of the structure shown.

In the case of `CC[C@H]1OC(=O)[C@H](C)C(=O)[C@H](C)[C@@H](O[C@@H]2O[C@H](C)C[C@H](N(C)C)[C@H]2O)[C@](C)(OC)C[C@@H](C)C(=O)[C@H](C)[C@H]2[C@H](SCCc3ccccc3)C(=O)O[C@@]21C` [Compound I-1, (3S,3aR,4R,6R,8R,9R,10R,12R,15R,15aS)-15-Ethyloctahydro-8-methoxy-4,6,8,10,12,15a-hexamethyl-3-[[2-phenylethyl]thio]-9-[[3,4,6-trideoxy-3-(dimethylamino)-β-D-xylo-hexopyranosyl]oxy]-2H-furo[2,3-c]oxacyclotetradecin-2,5,11,13(3H,6H,12H)-tetrone], the MIC in assay [1] was over 16 µg/mL; in assay [2], at most 0.25 µg/mL; in assay [3] it was at most 0.25 µg/mL; in [4], 4 µg/mL (≈ 5.35 µM); in assay [5], 1 µg/mL (≈ 1.34 µM); in assay [6], at most 0.5 µg/mL. For the same compound, the MIC was 32 µg/mL (≈ 42.8 µM) in [7] and over 16 µg/mL in assay [9]. The “minimum inhibitory concentration (MIC)” value in assay [8] is over 16 µg/mL.

Consider `CC[C@H]1OC(=O)[C@H](C)C(=O)[C@H](C)[C@@H](O[C@@H]2O[C@H](C)C[C@H](N(C)C)[C@H]2O)[C@](C)(OC)C[C@@H](C)C(=O)[C@H](C)[C@H]2[C@H](Sc3ccccc3)C(=O)O[C@@]21C` [Compound I-3, (3S,3aR,4R,6R,8R,9R,10R,12R,15R,15aS)-15-Ethyloctahydro-8-methoxy-4,6,8,10,12,15a-hexamethyl-3-[phenylthio]-9-[[3,4,6-trideoxy-3-(dimethylamino)-β-D-xylo-hexopyranosyl]oxy]-2H-furo[2,3-c]oxacyclotetradecin-2,5,11,13(3H,6H,12H)-tetrone], for which the MIC in [1] was over 16 µg/mL; in assay [2] it was 0.5 µg/mL (≈ 0.695 µM); in assay [3] it was 0.5 µg/mL (≈ 0.695 µM); in assay [4], 16 µg/mL (≈ 22.2 µM); in [5], 2 µg/mL (≈ 2.78 µM); in assay [6], at most 0.5 µg/mL. The MIC in assay [7] is 16 µg/mL (≈ 22.2 µM); in assay [9], over 16 µg/mL. Also, the “minimum inhibitory concentration (MIC)” value in assay [8] was over 16 µg/mL.

As to `CC[C@H]1OC(=O)[C@H](C)C(=O)[C@H](C)[C@@H](O[C@@H]2O[C@H](C)C[C@H](N(C)C)[C@H]2O)[C@](C)(OC)C[C@@H](C)C(=O)[C@H](C)[C@H]2[C@H](SCc3ccccc3)C(=O)O[C@@]21C` [Compound I-4, (3S,3aR,4R,6R,8R,9R,10R,12R,15R,15aS)-15-Ethyloctahydro-8-methoxy-4,6,8,10,12,15a-hexamethyl-3-[(phenylmethyl)thio]-9-[[3,4,6-trideoxy-3-(dimethylamino)-β-D-xylo-hexopyranosyl]oxy]-2H-furo[2,3-c]oxacyclotetradecin-2,5,11,13(3H,6H,12H)-tetrone], the MIC in assay [1] was over 16 µg/mL; in assay [2], 1 µg/mL (≈ 1.36 µM); in assay [3] it was 1 µg/mL (≈ 1.36 µM); in [4] it was 16 µg/mL (≈ 21.8 µM); in assay [5], 8 µg/mL (≈ 10.9 µM); in assay [6] it was at most 0.5 µg/mL. Further, the results for the MIC in [7] and in assay [9] were 16 µg/mL (≈ 21.8 µM) and over 16 µg/mL, respectively. For the same compound, the “minimum inhibitory concentration (MIC)” value in assay [8] was over 16 µg/mL.

Turning to `CC[C@H]1OC(=O)[C@H](C)C(=O)[C@H](C)[C@@H](O[C@@H]2O[C@H](C)C[C@H](N(C)C)[C@H]2O)[C@](C)(OC)C[C@@H](C)C(=O)[C@H](C)[C@H]2[C@H](SC)C(=O)O[C@@]21C` [Compound I-5, (3S,3aR,4R,6R,8R,9R,10R,12R,15R,15aS)-15-Ethyloctahydro-8-methoxy-4,6,8,10,12,15a-hexamethyl-3-[methylthio]-9-[[3,4,6-trideoxy-3-(dimethylamino)-β-D-xylo-hexopyranosyl]oxy]-2H-furo[2,3-c]oxacydotetradecin-2,5,11,13(3H,6H,12H)-tetrone], the “minimum inhibitory concentration (MIC)” value in [1] was over 16 µg/mL; in assay [2] it was 0.5 µg/mL (≈ 0.76 µM); in assay [3] it was 0.5 µg/mL (≈ 0.76 µM); in [4] it was 16 µg/mL (≈ 24.3 µM); in [5] it was 32 µg/mL (≈ 48.6 µM); in [6], “<=0.5 μg/ml”. The figures for the “minimum inhibitory concentration (MIC)” value in [7], in assay [8] and in [9] were over 32 µg/mL, over 16 µg/mL and over 16 µg/mL, respectively.

On to `CC[C@H]1OC(=O)[C@H](C)C(=O)[C@H](C)[C@@H](O[C@@H]2O[C@H](C)C[C@H](N(C)C)[C@H]2O)[C@](C)(OC)C[C@@H](C)C(=O)[C@H](C)[C@H]2[C@H](SCCCc3ccccn3)C(=O)O[C@@]21C` [Compound I-10, (3S,3aR,4R,6R,8R,9R,10R,12R,15R,15aS)-15-Ethyloctahydro-8-methoxy-4,6,8,10,12,15a-hexamethyl-3-[[3-(2-pyridinyl)propyl]thio]-9-[[3,4,6-trideoxy-3-(dimethylamino)-β-D-xylo-hexopyranosyl]oxy]-2H-furo[2,3-c]oxacyclotetradecin-2,5,11,13(3H,6H,12H)-tetrone], for which the MIC in assay [1] was over 16 µg/mL; in assay [2] it was at most 0.12 µg/mL; in assay [3], at most 0.12 µg/mL; in assay [4] it was 2 µg/mL (≈ 2.62 µM); in assay [5], 0.25 µg/mL (≈ 0.328 µM); in assay [6], at most 0.12 µg/mL. Moreover, the MIC in [7] was 8 µg/mL (≈ 10.5 µM); in assay [9], over 16 µg/mL. The “minimum inhibitory concentration (MIC)” value in assay [8] is over 16 µg/mL.

With `CC[C@H]1OC(=O)[C@H](C)C(=O)[C@H](C)[C@@H](O[C@@H]2O[C@H](C)C[C@H](N(C)C)[C@H]2O)[C@](C)(OC)C[C@@H](C)C(=O)[C@H](C)[C@H]2[C@H](SCCOc3ccccc3)C(=O)O[C@@]21C` [Compound I-11, (3S,3aR,4R,6R,8R,9R,10R,12R,15R,15aS)-15-Ethyloctahydro-8-methoxy-4,6,8,10,12,15a-hexamethyl-3-[[2-phenoxyethyl]thio]-9-[[3,4,6-trideoxy-3-(dimethylamino)-β-D-xylo-hexopyranosyl]oxy]-2H-furo[2,3-c]oxacyclotetradecin-2,5,11,13(3H,6H,12H)-tetrone], the MIC is over 16 µg/mL in assay [1]; at most 0.25 µg/mL in assay [2]; at most 0.25 µg/mL in assay [3]; 4 µg/mL (≈ 5.24 µM) in [4]; 4 µg/mL (≈ 5.24 µM) in assay [5]; at most 0.5 µg/mL in [6]. The values for the MIC in [7] and in assay [9] were 8 µg/mL (≈ 10.5 µM) and over 16 µg/mL, respectively. Also, the “minimum inhibitory concentration (MIC)” value in [8] was over 16 µg/mL.

For the compound `CC[C@H]1OC(=O)[C@H](C)C(=O)[C@H](C)[C@@H](O[C@@H]2O[C@H](C)C[C@H](N(C)C)[C@H]2O)[C@](C)(OC)C[C@@H](C)C(=O)[C@H](C)[C@H]2[C@H](SCCn3cnc(-c4cccnc4)n3)C(=O)O[C@@]21C` [Compound I-17, (3S,3aR,4R,6R,8R,9R,10R,12R,15R,15aS)-15-Ethyloctahydro-8-methoxy-4,6,8,10,12,15a-hexamethyl-3-[[2-[3-(3-pyridinyl)-1H-1,2,4-triazol-1-yl]ethyl]thio]-9-[[3,4,6-trideoxy-3-(dimethylamino)-β-D-xylo-hexopyranosyl]oxy]-2H-furo[2,3-c]oxacyclotetradecin-2,5,11,13(3H,6H,12H)-tetrone], the MIC in assay [1] was over 16 µg/mL; in assay [2], at most 0.12 µg/mL; in [3] it was at most 0.12 µg/mL; in [4], 1 µg/mL (≈ 1.23 µM); in [5], at most 0.12 µg/mL; in [6] it was at most 0.12 µg/mL. Besides, the MIC in assay [9] is over 16 µg/mL. The “minimum inhibitory concentration (MIC)” value in assay [8] was over 16 µg/mL.

The record behind these values is patent US6740642B2, “Macrolides with antibacterial activity” (BAsilea Parmaceutica AG, priority 2000, dated 2004).
